Assay results taken from PubChem BioAssay AID1259347.
Active and inactive are the calls of the source.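 How the source made its calls: active means compounds raising absorbance, a cell survival measure, over 1.5-fold at the top dose, rising with dose; inactive means the rest.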

How the values were obtained:
[1] = system: HCT116 Ad-hTR-mut infected, survival, MTT 4 d; experiment: survival after telomere uncapping, modulators, dose response, cell-based, HCT116, Ad-hTR-mut infection, MTT (AID 1259347)
[2] = as above; conditions: HCT116 Ad-hTR-mut infected, survival, MTT 4 d; measured here: second series; at 10 µM; stronger effect = higher value

SMILES | EC50 [1] | fold survival [2]
Cc1ccc(C(=O)Nc2ccc(S(=O)(=O)O)c3cc(S(=O)(=O)O)cc(S(=O)(=O)O)c23)cc1NC(=O)c1cccc(NC(=O)Nc2cccc(C(=O)Nc3cc(C(=O)Nc4ccc(S(=O)(=O)O)c5cc(S(=O)(=O)O)cc(S(=O)(=O)O)c45)ccc3C)c2)c1 | < 10 µM | 2.65
C/C(=C\C(=O)Nc1ccccc1C(=O)O)c1ccc2ccccc2c1 | > 0.1 µM (inactive) | 
Cc1nc2cc(-c3ccc(Br)cc3)nn2c(C)c1CCC(=O)O | < 10 µM | 1.44
